The values that follow come from patent publication US20240270762A1, “PENICILLIN-BINDING PROTEIN INHIBITORS” (priority 2021, published 2024).

Values after ≈ are worked out from the molar mass of the structure shown.

One experiment relates to A. baumannii ATCC 17978. Nature of the experiment: microbe, parasite or virus in culture. The class given is cell-based. Conditions: Acinetobacter baumannii, ATCC17978, read-out: MIC, A. baumannii ATCC 17978.
The next experiment relates to A. baumannii CDC-0036. Kind of experiment: microbe, parasite or virus in culture. The class given is cell-based. Conditions: Acinetobacter baumannii, CDC0036, read-out: MIC, A. baumannii CDC-0036.
Experiment [1] concerns the target T1, PBP3 from Acinetobacter baumannii (ATCC 19606) (Acinetobacter baumannii, UniProt A0ABX6CK25).
T1 sequence (A0ABX6CK25 64-610): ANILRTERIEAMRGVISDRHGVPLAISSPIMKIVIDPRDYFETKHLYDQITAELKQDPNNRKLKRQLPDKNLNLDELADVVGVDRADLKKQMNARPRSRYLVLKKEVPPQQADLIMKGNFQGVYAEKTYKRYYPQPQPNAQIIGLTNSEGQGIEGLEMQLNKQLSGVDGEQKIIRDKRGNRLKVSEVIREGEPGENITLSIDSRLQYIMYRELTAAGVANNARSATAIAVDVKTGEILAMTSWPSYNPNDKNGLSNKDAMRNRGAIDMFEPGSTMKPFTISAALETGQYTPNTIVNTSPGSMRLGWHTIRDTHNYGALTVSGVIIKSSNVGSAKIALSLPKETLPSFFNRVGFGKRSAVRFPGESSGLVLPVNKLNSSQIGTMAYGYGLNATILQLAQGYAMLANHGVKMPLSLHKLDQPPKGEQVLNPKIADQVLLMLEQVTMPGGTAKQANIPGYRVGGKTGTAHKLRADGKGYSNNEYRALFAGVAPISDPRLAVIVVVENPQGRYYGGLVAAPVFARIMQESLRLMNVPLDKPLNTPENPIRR
Kind of experiment: Bocillin-FL fluorescence polarization competition binding, A. baumannii PBP3. To be noted: fluorescence polarization competition binding assay using Bocillin-FL; read-out: A. baumannii PBP3 Potency. Summed up: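 Purified PBPs pre-incubated with inhibitor (E. coli PBP3 1.5 μM, 30 min; P. aeruginosa PBP3 0.75 μM, A. baumannii PBP1a 1 μM and PBP3 0.2 μM, 15 min), then Bocillin-FL 0.1 μM (0.05 μM for PBP1a) added; FP read up to 60 min. EC50 = concentration halving bound Bocillin-FL.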

In the case of `O=C(O)c1cccc2c1OB(O)[C@@H](NC(=O)C(NC(=O)N1CCN(Cc3ccc(O)c(O)c3Cl)C(=O)C1=O)c1ccc(P(=O)(O)O)cc1)C2` (stereo partly drawn) [Example 24, (3R)-3-(2-(4-(2-chloro-3,4-dihydroxybenzyl)-2,3-dioxopiperazine-1-carboxamido)-2-(4-phosphonophenyl)acetamido)-2-hydroxy-3,4-dihydro-2H-benzo[e][1,2]oxaborinine-8-carboxylic acid], the MIC in the experiment with A. baumannii ATCC 17978 and with A. baumannii CDC-0036 was < 1 µg/mL in each case. Further, the IC50 in experiment [1] is < 10 µM.

As to `O=C(O)c1c(F)ccc2c1OB(O)[C@@H](NC(=O)C(NC(=O)N1CCN(Cc3cc(F)c(O)c(O)c3Cl)C(=O)C1=O)c1ccc(P(=O)(O)O)cc1)C2` (stereo partly drawn) [Example 45, (3R)-3-(2-(4-(2-chloro-5-fluoro-3,4-dihydroxybenzyl)-2,3-dioxopiperazine-1-carboxamido)-2-(4-phosphonophenyl)acetamido)-7-fluoro-2-hydroxy-3,4-dihydro-2H-benzo[e][1,2]oxaborinine-8-carboxylic acid], the MIC with A. baumannii ATCC 17978 and in the experiment on A. baumannii CDC-0036 was < 1 µg/mL throughout. Moreover, the IC50 in experiment [1] is < 10 µM.

As for `O=C(N[C@@H](C(=O)N[C@H]1Cc2cccc(C(=O)O)c2OB1O)c1ccc(P(=O)(O)O)cc1)c1ccc(O)c(O)c1Cl` [Example 49, (R)-3-((R)-2-(2-chloro-3,4-dihydroxybenzamido)-2-(4-phosphonophenyl)acetamido)-2-hydroxy-3,4-dihydro-2H-benzo[e][1,2]oxaborinine-8-carboxylic acid], the values for the MIC in the experiment with A. baumannii ATCC 17978 and in the experiment on A. baumannii CDC-0036 were < 1 µg/mL and > 128 µg/mL, respectively. The IC50 in experiment [1] is < 10 µM.

Take `O=C(NCCN1CCN(C(=O)NC(C(=O)N[C@H]2Cc3ccc(F)c(C(=O)O)c3OB2O)c2ccc(P(=O)(O)O)cc2)C(=O)C1=O)c1ccc(O)c(O)c1Cl` (stereo partly drawn) [Example 120, (3R)-3-(2-(4-(2-(2-chloro-3,4-dihydroxybenzamido)ethyl)-2,3-dioxopiperazine-1-carboxamido)-2-(4-phosphonophenyl)acetamido)-7-fluoro-2-hydroxy-3,4-dihydro-2H-benzo[e][1,2]oxaborinine-8-carboxylic acid]: the MIC in the experiment with A. baumannii ATCC 17978 is < 1 µg/mL; with A. baumannii CDC-0036 it was 8 to 16 µg/mL (≈ 10.1 to 20.2 µM). The IC50 in experiment [1] was < 10 µM.
